According to patent publication US20140179681A1, “METHODS AND COMPOSITIONS OF TARGETED DRUG DEVELOPMENT” (priority 2010, published 2014):
pIC50: −log10 of the molar value. Structures can show the parent of a compound that is named as a salt.

Tests used:
EGFR = biological target: T1, EGFR (Homo sapiens, UniProt P00533); test: EGFR in-cell Western (ICW) screening protocol (EGFR inhibition assay); format: cell-based; parameters: ICW 1 / ICW 2 / ICW Avg: unit not given here; conditions: ICW assay; for ICW Avg: average of runs 1 and 2; for ICW 1: run 1; for ICW 2: run 2
T1 construct: host or cells: A431
Method: The following example describes general EGFR in-cell Western (ICW) screening protocol. Methods are according to Chen et al. (2005) Analytical Biochemistry 338, 136-142 (incorporated herein by reference), except as otherwise noted.
Cell Plates: A431 cells (ATCC # CRL-1555) were grown in Dulbecco's Modified Eagle Medium (DMEM; ATCC #30-2002) supplemented with 10% fetal bovine serum, 105 units/ml pen/strep (Invitrogen #15140155) and 2.1 mM L-glutamine (ATCC #30-2214). Cells were seeded into 96 well tissue culture plates (BD Falcon #353948) at a density of 30,000 cells per well and incubated at 37° C. with 5% CO2 overnight. Two cell plates were prepared for each compound plate.
Serum Starvation: The cells were serum starved prior to compound addition. The media was removed by aspiration and the cells washed with PBS (200 μl/well; Invitrogen #20012-027). The PBS was removed by aspiration and replaced with 200 μl of DMEM (ATCC #30-2002) supplemented with 105 units/ml pen/strep (Invitrogen #15140155) and 2.1 mM 1-glutamine (ATCC #30-2214). The cell plates were incubated at 37° C./5% CO2 for 2 hours.
Compound Plate Preparation: The test compounds were solvated in 100% DMSO (Sigma #472301-2L) at a concentration of 25 mM. Compounds found not to be completely soluble in 100% DMSO at 25 mM were diluted to 10 mM with 100% DMSO and TFA (Fluka #91699) added to a final concentration of 0.2%. 40 μl of test compound was added to the appropriate well of a 96 well plate (Falcon #351190). As controls, 6 μM EGFR kinase inhibitor PD168393 (EMD/Calbiochem #513033) in 100% DMSO and DMSO alone were added to various wells. Prepared compound plates were stored at RT prior to use and at 4° C. long term.
Compound Dilution Plate Preparation: 250 μl of DMEM supplemented with 1 mg/ml BSA (Sigma A3059-10G) was added to the appropriate wells of a 96 well plate to prepare the compound dilution plates. Using a multichannel pipettor, 1.25 μl of compound from the compound plate was transferred into the compound dilution plate.
Compound Addition: The starve media was removed from the cell plates by aspiration. Using a multichannel pipettor, the compound dilution plates were mixed by pipetting up and down three times. 50 μl of mixed, diluted compound was added to each of two rows/columns on each of two cell plates. The cell plates with compound were incubated at 37° C./5% CO2 for 4 hours.
EGF Addition: 20 ng/ml EGF (Upstate #01-107) was prepared in DMEM supplemented with 1 mg/ml BSA. 50 μl of 20 or 0 ng/ml EGF was added to the appropriate wells without the removal of compound. The compound and EGF were mixed by pipetting up and down three times. The plates were incubated at 37° C./5% CO2 for 10 min. In some screening assays the final concentration of EGF used for simulation was 6.6, or 12.5 ng/ml rather than 10 ng/ml.
Fixation and Triton Washing: The EGF+compound was removed by aspiration and 150 μl of freshly prepared Fixation Solution (1×PBS, Sigma P3813-10PK, and 4% Formaldehyde, Pierce #28908) was immediately added. The plates were incubated at RT for 20 min without shaking. The Fixation Solution was removed by aspiration and the plates washed four times with 200 μl each of Triton Wash Solution (1×PBS, Sigma P3813-10PK, and 0.1% Triton X-100, T8787-50ML) for 5 min with gentle shaking.
Blocking and Probing: Following the last Triton Wash, the plates were blocked for 1.5 h at RT with shaking using 150 μl of Odyssey Blocking Buffer (LI-COR #927-40000). The block was removed by aspiration and 50 μl of diluted primary Ab mix was added. The plates were incubated at 4° C. overnight with gentle shaking. The plates were washed five times with 200 μl of PBST (1×PBS, Sigma P3813-10PK, and 0.1% Tween-20, Sigma P9416-50ML) for 5 min each with shaking 50 μl of diluted secondary Ab mix was added and the plates incubated at RT for 1 h with shaking. The plates were washed 5× with 200 μl of PBST for 5 min each with shaking. […]

[1] = test system: epithelial carcinoma A431 cell line; test: MTT Cell Proliferation Assay, A431 cells; format: cell-based; conditions: for pIC50: Homo sapiens, A-431, A431 cells, first value of cell, read-out: MTT Assay IC50(A431/MDBK): A431; for MTT Assay IC50(A431/MDBK): ratio in parentheses: ratio MDBK IC50 / A431 IC50 (selectivity)
Source text: (§1) The following example describes the MTT Cell Proliferation Assay.
(§2) The MTT Cell Proliferation Assay is a colorimetric assay system that measures the reduction of the tetrazolium salt MTT (3-(4,5-dimethylthiazol-2-yl)-2,5-diphenyltetrazolium bromide) into insoluble formazan crystals, produced by the mitochondria of viable cells. […] The color can then be quantified by spectrophotometric means. Among the applications for the method are drug sensitivity, cytotoxicity, response to growth factors, and cell activation. The reduction of tetrazolium salts is now recognized as a safe, accurate alternative to radiometric testing.
(§3) Two replicates on each cell plate and 2 duplicate plates gave 4 individual replicates of each concentration, in each cell line. Concentrations were diluted in 100% DMSO from 25 mM stocks.
(§4) Twelve 96 well plates of each cell line were plated. Plating was done by dislodging cells as in passage protocol, counting on a hemocytometer, re-suspending in standard growth media, and plating using a multichannel pippetor.
(§5) 16 μl of 25 mM stock+34 μl DMSO=8 mM starting concentrations, and serial diluted as with test compounds in same plate. […] Two replicates of each concentrations was run on each cell plate. All compound addition and cell treatments were done using aseptic technique under a laminar flow aseptic hood.
(§6) Control: 0.5% DMSO in treatment media was used as the control.
(§7) MTT dye (Thiazolyl Blue Tetrazolium Bromide, Sigma cat #M5655) stock was prepared in bulk and stored at 4° C. for use: 5 mgs/ml sterile PDS, shielded from light. 4 ul of this stock per 100 uls treatment media per well was used.
(§8) Plates were incubated overnight prior to treatment, with treatment day=Day 0. Compound treatments were prepared prior to washing cells to minimize time cells were dry at room temperature after final aspiration. Compounds were diluted in 100% DMSO in 96 well polypropylene plates: 40 μl 25 mM stock+10 μl DMSO=20 mM; 20 μl of 20 mM+30 μl DMSO=8 mM; 20 μl of 8 mM+30 μl DMSO=3.2 mM; 20 μl of 3.2 mM+30 μl DMSO=1.3 mM; 20 μl of 1.3 mM+30 μl DMSO=0.51 mM.
(§9) 5.0 μl/ml were added to treatment media, in sterile, 2.2 ml deep well plates=0.5% dmso final. Ten μl of each dmso concentration was added to 2.0 ml of treatment media and then mixed using a 1200 μl multichannel pipettor. Cell plates were treated from the deep well plates. Treatment media was standard growth media containing 0.5% FBS and standard additions. This reduced FBS concentration allowed for a slower growth rate in cells.
(§10) Media was aspirated from cell plates, and washed with 200 μl/well sterile PBS. Aspirated PBS wash, and cell plates were treated with 200 μl of compound/treatment media per well, and incubated at 37° C., 5% CO2 for 3 days.
(§11) Prior to harvesting, visual observations were made under an inverted microscope. Plates were harvested by: aspirating the growth media; adding back MTT dye/100 μl treatment media; and incubating plates at 37° C. for 1 hour. MTT dye was aspirated. 100 μl/well dmso was added, and then shaken on a Bellco plate shaker for 5 minutes, at 4.5 setting.
(§12) Plates were read in a Tecan Sunrize UV plate reader, at 560 nm. Settings: Read mode, Outside Normal 2 sec; Shake settle time 3 sec. Data is reported as % inhibition, calculated for individual plates using control values from that plate.

MDBK line = test: MTT Cell Proliferation Assay, MDBK cells; format: cell-based, bovine; conditions: MDBK cells, second value of cell; for pIC50: Bos taurus, MDBK, read-out: MTT Assay IC50(A431/MDBK): MDBK
Source text: as §1, §2, §3, §4, §5, §6, §7, §8, §9, §10, §11, §12

T1 sequence (P00533 25-1210): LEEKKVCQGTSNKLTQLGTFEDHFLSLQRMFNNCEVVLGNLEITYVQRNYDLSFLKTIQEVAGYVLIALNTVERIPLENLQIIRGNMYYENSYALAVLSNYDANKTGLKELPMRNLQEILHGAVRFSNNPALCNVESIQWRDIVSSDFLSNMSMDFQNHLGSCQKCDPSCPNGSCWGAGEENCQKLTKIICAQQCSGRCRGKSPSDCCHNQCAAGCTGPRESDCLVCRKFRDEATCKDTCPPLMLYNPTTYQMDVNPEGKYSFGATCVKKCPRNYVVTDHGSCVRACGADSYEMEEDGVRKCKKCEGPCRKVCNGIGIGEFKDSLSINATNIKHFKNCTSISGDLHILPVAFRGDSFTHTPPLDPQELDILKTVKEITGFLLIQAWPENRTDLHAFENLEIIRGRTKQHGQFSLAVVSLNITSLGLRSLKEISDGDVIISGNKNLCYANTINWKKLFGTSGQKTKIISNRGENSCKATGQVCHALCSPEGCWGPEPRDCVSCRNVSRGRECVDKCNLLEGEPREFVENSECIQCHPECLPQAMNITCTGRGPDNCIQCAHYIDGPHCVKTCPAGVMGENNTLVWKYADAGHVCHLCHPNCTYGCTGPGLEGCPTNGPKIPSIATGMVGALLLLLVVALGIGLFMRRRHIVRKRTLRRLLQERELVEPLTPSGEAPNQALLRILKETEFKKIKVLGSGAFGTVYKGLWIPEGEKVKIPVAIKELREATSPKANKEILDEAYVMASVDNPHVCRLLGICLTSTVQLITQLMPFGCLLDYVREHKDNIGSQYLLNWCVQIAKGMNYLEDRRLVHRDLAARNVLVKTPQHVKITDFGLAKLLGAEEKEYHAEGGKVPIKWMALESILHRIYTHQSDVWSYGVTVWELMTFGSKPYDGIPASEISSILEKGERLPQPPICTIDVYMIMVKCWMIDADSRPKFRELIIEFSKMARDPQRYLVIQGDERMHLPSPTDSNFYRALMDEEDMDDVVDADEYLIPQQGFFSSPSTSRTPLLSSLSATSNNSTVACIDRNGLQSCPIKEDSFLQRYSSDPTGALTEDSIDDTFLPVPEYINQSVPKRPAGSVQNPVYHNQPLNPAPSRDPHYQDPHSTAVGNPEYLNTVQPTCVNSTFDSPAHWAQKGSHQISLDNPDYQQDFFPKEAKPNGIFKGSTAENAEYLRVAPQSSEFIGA

SMILES | ICW Avg (EGFR) | ICW 1 (EGFR) | ICW 2 (EGFR) | pIC50 [1] | MTT Assay IC50(A431/MDBK): ratio in parentheses [1] | MTT Assay IC50(A431/MDBK): MDBK (MDBK line) | pIC50 (MDBK line)
CCOc1ccc2nc(Nc3ncc4c(n3)CC(c3ccco3)CC4=O)nc(C)c2c1 (centres unmarked) [11674 + TFA] | 25.04 | 31.91 | 18.16 | 4.69 | 1.76 |  | 4.45
CCc1ccc2nc(Nc3ncc4c(n3)CC(c3cccc(Cl)c3)CC4=O)nc(C)c2c1 (centres unmarked) [11680 + TFA] | 27.24 | 32.59 | 21.89 | 4.66 | 0.80 |  | 4.76
O=c1[nH]c(Nc2nc(-c3ccccc3)c3cc(Cl)ccc3n2)nc2ccccc12 [11706 + TFA] | 34.32 | 37.65 | 30.99 | 4.75 | 1.45 |  | 4.59
Cc1ccc(SCc2cc(=O)[nH]c(Nc3nc(C)c4cccc(C)c4n3)n2)cc1 [11707 + TFA] | 40.51 | 43.70 | 37.31 | 4.80 |  | non-convergent | 

Compounds with a higher pIC50 [1], results first:

ICW Avg (EGFR) | ICW 1 (EGFR) | ICW 2 (EGFR) | pIC50 [1] | MTT Assay IC50(A431/MDBK): ratio in parentheses [1] | MTT Assay IC50(A431/MDBK): MDBK (MDBK line) | SMILES | pIC50 (MDBK line)
25.27 | 34.91 | 15.63 | 4.87 | 1.80 |  | Cc1ccc(C2CC(=O)c3cnc(Nc4nc(C)c5cc(C)c(C)cc5n4)nc3C2)cc1 (centres unmarked) [11670 + TFA] | 4.61
25.83 | 31.02 | 20.64 | 4.90 | 0.70 |  | Cc1nc(Nc2ncc3c(n2)CC(c2ccco2)CC3=O)nc2ccccc12 (centres unmarked) [11679 + TFA] | 5.06
29.86 | 30.46 | 29.26 | 5.26 | 0.75 |  | Cc1cc2nc(Nc3ncc4c(n3)CC(c3cccs3)CC4=O)nc(C)c2cc1C (centres unmarked) [11681 + TFA] | 5.39
